Data from patent US20040121994A1, “Novel amides that activate soluble guanylate cyclase” (priority 2002, published 2004).

Target: T1, soluble guanylate cyclase (sGC), α1 and β1 subunits of guanylate cyclase expressed in Sf9 cells (Homo sapiens, UniProt Q02108+Q02153)
T1 construct: made in house; host or cells: Sf9 insect cells (baculovirus co-infection)
T1 sequence (Q02108 1-690): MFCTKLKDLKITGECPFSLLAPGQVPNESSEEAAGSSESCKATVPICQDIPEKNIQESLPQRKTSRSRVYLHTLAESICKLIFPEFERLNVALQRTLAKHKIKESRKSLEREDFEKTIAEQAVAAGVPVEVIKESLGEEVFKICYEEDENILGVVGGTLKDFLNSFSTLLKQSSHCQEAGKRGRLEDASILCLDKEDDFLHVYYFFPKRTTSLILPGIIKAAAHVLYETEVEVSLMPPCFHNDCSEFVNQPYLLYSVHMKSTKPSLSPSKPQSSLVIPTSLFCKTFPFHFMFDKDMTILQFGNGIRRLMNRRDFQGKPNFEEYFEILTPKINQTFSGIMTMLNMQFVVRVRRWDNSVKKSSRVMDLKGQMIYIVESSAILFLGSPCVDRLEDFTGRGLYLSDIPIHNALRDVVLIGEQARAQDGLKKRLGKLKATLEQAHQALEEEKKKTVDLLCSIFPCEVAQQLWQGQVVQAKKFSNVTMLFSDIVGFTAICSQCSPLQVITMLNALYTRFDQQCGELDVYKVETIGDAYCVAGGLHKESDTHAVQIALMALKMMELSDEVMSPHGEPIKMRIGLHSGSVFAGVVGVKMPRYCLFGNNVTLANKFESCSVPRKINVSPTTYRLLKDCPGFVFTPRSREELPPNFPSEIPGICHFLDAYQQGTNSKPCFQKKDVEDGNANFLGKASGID
T1 sequence (Q02153 1-619): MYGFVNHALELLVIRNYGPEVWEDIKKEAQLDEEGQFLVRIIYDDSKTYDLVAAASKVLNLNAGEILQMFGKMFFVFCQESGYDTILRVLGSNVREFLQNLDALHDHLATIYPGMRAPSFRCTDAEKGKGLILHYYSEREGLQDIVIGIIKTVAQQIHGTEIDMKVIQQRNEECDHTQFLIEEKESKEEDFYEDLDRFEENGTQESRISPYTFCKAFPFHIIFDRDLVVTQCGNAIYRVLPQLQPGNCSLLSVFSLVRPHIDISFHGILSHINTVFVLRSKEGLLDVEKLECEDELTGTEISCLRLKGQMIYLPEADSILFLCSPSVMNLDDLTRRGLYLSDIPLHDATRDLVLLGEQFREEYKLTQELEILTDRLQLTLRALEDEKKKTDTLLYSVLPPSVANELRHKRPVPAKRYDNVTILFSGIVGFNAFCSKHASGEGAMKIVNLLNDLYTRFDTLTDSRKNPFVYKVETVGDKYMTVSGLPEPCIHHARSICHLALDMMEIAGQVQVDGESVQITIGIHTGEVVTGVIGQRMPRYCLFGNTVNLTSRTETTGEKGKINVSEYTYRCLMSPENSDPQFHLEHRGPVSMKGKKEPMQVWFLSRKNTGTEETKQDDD
Experiment: Guanylate cyclase assay (formation of cyclic GMP from GTP)
Type: biochemical
Details: for Mean activation at 100 μM: (activity of compound at 100 μM with 1 μM SNP)−(activity of compound at 100 μM)/(activity of SNP at 1 μM)−(basal activity of sGC); for Mean efficacy of compound combined with 1 μM of SNP, [%]: compound at 100 μM with 1 μM sodium nitro prusside (SNP); for Emax at 100 µM: read-out: Mean basal efficacy of compound alone at 100 μM, [%]
Description: Sf9 cells were cultured in Sf-90011 medium supplemented with 10% (v/v) fetal calf serum at 28° C. to give a count of 6×10^5 cells/ml. The cells were then infected with a mixture of the virus stocks for the α1 and β1 subunits of guanylate cyclase at a multiplicity of infection of 0.1 pfu/cell. The cells were harvested 72 hours after infection and were pelleted by centrifugation. The resulting cell pellets were homogenized with Polytron homogenizer in 3 volumes of 20 mM Tris-HCl (pH 7.6) containing 1 mM EDTA, 5 mM dithiothreitol, 90 mM NaCl, 10% glycerol, and protease inhibitors mix (Roche Molecular Biochemicals). The homogenate was centrifuged at 50,000×g for 60 minutes and the supernatant was aliquotted and stored at −80° C.
Compounds of the present invention were dissolved in DMSO to make 100 mM and saved as stocks at −20° C. When compounds were tested, prepared 10-fold concentrated solutions with 10% DMSO. Then added 10 μl of 10-fold concentrated compound solutions to the reaction mixture of total 100 μl.
Guanylate cyclase activity was measured by the formation of cyclic GMP from GTP in a total volume of 100 μl. Guanylate cyclase-expressed Sf9 cell high-speed supernatant was used as an enzyme source for the assay. The reaction mixture containing 0.1 μl enzyme (Sf9 high-speed sup), compound solution, 50 mM Tris-HCl (pH 7.6), 4 mM MgCl2, 0.5 mM IBMX, 15 mM creatine phosphate, 20 μg creatine phosphokinase, 0.1% BSA and 1 mM GTP was incubated at 37° C. for 15 minutes. After the reaction, 0.9 ml of 50 mM sodium acetate buffer (pH 5.8) was added followed by boiling for 3 minutes to stop the reaction. The solution was centrifuged at 3000 rpm for 15 minutes at room temperature and cyclic GMP in 20 μl of the resulting supernatant was measured according to the protocol of Amersham cyclic GMP enzymeimmunoassay system (purchased from Sigma, catalogue number RPN 226).
Compounds of the present invention were tested at 100 μM with and without 1 μM sodium nitro prusside (SNP). 1-Benzyl-3-hydroxymethyl-2-furylindazole (YC-1) was included as a standard for each assay. The data was normalized with the activity of 100 μM YC-1 (without SNP) as 100%. Mean basal efficacy, in Table 1, was expressed as a percentage of 100 μM YC-1 (without SNP).
The mean activation, in Table 1, was calculated based on the formula: (activity of compound of the present invention at 100 μM with 1 μM SNP)−(activity of compound of the present invention at 100 μM)/(activity of SNP at 1 μM)−(basal activity of sGC).

[1] = normalized with the activity of 100 μM YC-1 (without SNP) as 100%
[2] = compound at 100 μM without SNP, normalized with the activity of 100 μM YC-1 (without SNP) as 100%

Row | Structure (SMILES) | Mean activation at 100 μM | Mean efficacy of compound combined with 1 μM of SNP, [%] [1] [%] | Emax at 100 µM [2] [%] | Mean basal efficacy of compound alone at 100 μM, [%] [2] [%]
1 | CC(O)CNC(=O)/C=C/c1ccccc1Sc1ccc(Cl)cc1 (stereo not drawn) [Example 37, (2E)-3-{2-[(4-chlorophenyl)thio]phenyl}-N-(2-hydroxypropyl)acrylamide] | 30.6 | 405 | 70 | 
2 | Cc1ccc(/C=C/C(=O)NC2CCC(O)CC2)c(Sc2ccc(Cl)cc2)n1 (stereo not drawn) [Example 28, (2E)-3-{2-[(4-chlorophenyl)thio]-6-methyl-3-pyridinyl}-N-(4-hydroxycyclohexyl)acrylamide] | 2.6 | 18 | 6 | 
3 | O=C(CCc1ccccc1Sc1ccc(Cl)cc1)NCCCCCO [Example 3, 3-{2-[(4-chlorophenyl)thio]phenyl}-N-(5-hydroxypentyl)propanamide] | 2.3 | 29 | 2 | 
4 | O=C(/C=C/c1ccccc1Sc1ccc(Cl)cc1)NCCCCO [Example 34, (2E)-3-{2-[(4-chlorophenyl)thio]phenyl}-N-(4-hydroxybutyl)acrylamide] | 6.9 | 219 | 113 | 
5 | CC(C)CCSc1ccccc1/C=C/C(=O)NCCCCO [Example 58, (2E)-N-(4-hydroxybutyl)-3-{2-[(3-methylbutyl)thio]phenyl}acrylamide] | 7.8 | 307 | 215 | 
6 | COc1ccc(Sc2ccc(C)cc2)c(/C=C/C(=O)NC2CCC(O)CC2)c1 (stereo not drawn) [Example 44, (2E)-N-(4-hydroxycyclohexyl)-3-{5-methoxy-2-[(4-methylphenyl)thio]phenyl}acrylamide] | 3.5 | 89 | 36 | 
7 | OCc1ccc(-c2nn(Cc3ccccc3)c3ccccc23)o1 [YC-1, 1-Benzyl-3-hydroxymethyl-2-furylindazole, reference compound] | 2.7 | 224 |  | 100
8 | O=C(/C=C/c1cc(F)ccc1Sc1ccc(Cl)cc1)NCCCCO [Example 54, (2E)-3-{2-[(4-chlorophenyl)thio]-5-fluorophenyl}-N-(4-hydroxybutyl)acrylamide] | 13.0 | 186 | 85 | 
9 | O=C(/C=C/c1ccccc1SC1CCCC1)NC1CCC(O)CC1 (stereo not drawn) [Example 25, (2E)-3-[2-(cyclopentylthio)phenyl]-N-(4-hydroxycyclohexyl)acrylamide] | 9.5 | 430 | 242 | 
10 | COc1cccc(Sc2ccccc2/C=C/C(=O)NC2CCC(O)CC2)c1 (stereo not drawn) [Example 50, (2E)-N-(4-hydroxycyclohexyl)-3-{2-[(3-methoxyphenyl)thio]phenyl}acrylamide] | 6.4 | 175 | 68 | 
11 | O=C(/C=C/c1cccnc1Sc1ccccc1Cl)NC1CCC(O)CC1 (stereo not drawn) [Example 20, (2E)-3-{2-[(2-chlorophenyl)thio]-3-pyridinyl}-N-(4-hydroxycyclohexyl)acrylamide] | 6.3 | 199 | 90 | 
12 | CC(O)CCNC(=O)/C=C/c1ccccc1Sc1ccc(Cl)cc1 (stereo not drawn) [Example 38, (2E)-3-{2-[(4-chlorophenyl)thio]phenyl}-N-(3-hydroxybutyl)acrylamide] | 19.0 | 259 | 60 | 
13 | CC(CCCC(C)(C)O)NC(=O)CCc1ccccc1Sc1ccc(Cl)cc1 (stereo not drawn) [Example 2, 3-{2-[(4-chlorophenyl)thio]phenyl}-N-(5-hydroxy-1,5-dimethylhexyl)propanamide] | 2.6 | 84 | 9 | 
14 | Cc1cccc(Sc2ccccc2/C=C/C(=O)NC2CCC(O)CC2)c1 (stereo not drawn) [Example 52, (2E)-N-(4-hydroxycyclohexyl)-3-{2-[(3-methylphenyl)thio]phenyl}acrylamide] | 2.7 | 50 | 11 | 
15 | O=C(/C=C/c1ccccc1Sc1ccc(Cl)cc1)NC1CCCCC1O (stereo not drawn) [Example 40, (2E)-3-{2-[(4-chlorophenyl)thio]phenyl}-N-(2-hydroxycyclohexyl)acrylamide] | 6.3 | 366 | 100 | 
16 | O=C(/C=C/c1c(F)cccc1Sc1ccc(Cl)cc1)NCCCCO [Example 41, (2E)-3-{2-[(4-chlorophenyl)thio]-6-fluorophenyl}-N-(4-hydroxybutyl)acrylamide] | 3.8 | 69 | 5 | 
17 | CC(C)CCSc1ccccc1/C=C/C(=O)NCCCO [Example 57, (2E)-N-(3-hydroxypropyl)-3-{2-[(3-methylbutyl)thio]phenyl}acrylamide] | 8.4 | 303 | 200 | 
18 | O=C(/C=C/c1cccnc1Sc1ccc(Cl)cc1)NC1CCC(O)CC1 (stereo not drawn) [Example 16, (2E)-3-{2-[(4-chlorophenyl)thio]-3-pyridinyl}-N-(4-hydroxycyclohexyl)acrylamide] | 3.6 | 68 | 11 | 
19 | Cc1ccc(Sc2ccccc2CCC(=O)NCCCCO)cc1 [Example 5, N-(4-hydroxybutyl)-3-{2-[(4-methylphenyl)thio]phenyl}propanamide] | 5.1 | 96 | 14 | 
